Reference: patent publication US9850283B2, “Macrocyclic inhibitors of the PD-1/PD-L1 and CD80(B7-1)/PD-L1 protein/protein interactions” (BRISTOL-MYERS SQUIBB COMPANY, priority 2013, dated 2017)
Read-outs that look alike come from different tables or passages of the source. Positions of bridges follow the written chain, without caps; N, C: chain ends. Non-standard residues stand in square brackets, D forms with d. Residues, ends and D or L forms follow the SMILES beside them. ξ: configuration not given here. Pro(5S-Me) = C[C@H]1CC[C@@H](C(=O)O)N1; Bta = N[C@@H](Cc1csc2ccccc12)C(=O)O; Hyp = O=C(O)[C@@H]1C[C@@H](O)CN1; NMehSer = CN[C@@H](CCO)C(=O)O; NMeNle = CCCC[C@H](NC)C(=O)O; NMeA = CN[C@@H](C)C(=O)O; ξhCys = NC(CCS)C(=O)O; ξC = NC(CS)C(=O)O

Experiments:
Human PD-L1/PD-1 = target: T1, Human PD-L1/PD-1 (Homo sapiens, UniProt Q9NZQ7); test: HTRF PD-1-Ig/PD-L1-His binding assay (human PD-L1)
T1 construct: made in house; host or cells: HEK293T
T1 sequence (Q9NZQ7 with tags, fused parts or gaps): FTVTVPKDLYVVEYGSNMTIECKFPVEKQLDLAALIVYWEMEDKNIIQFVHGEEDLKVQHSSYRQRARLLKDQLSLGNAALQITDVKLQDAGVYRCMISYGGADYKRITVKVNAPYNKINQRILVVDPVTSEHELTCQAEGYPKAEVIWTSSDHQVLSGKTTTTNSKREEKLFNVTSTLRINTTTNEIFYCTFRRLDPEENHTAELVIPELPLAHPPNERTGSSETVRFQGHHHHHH
Procedure, shortened: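 Steps: truncated PD-1-Ig and PD-L1-His fusions are incubated in dPBS containing 0.1% (w/v) BSA and 0.05% (v/v) Tween-20. Detection antibodies are then added (Eu cryptate anti-Ig at 1 nM final, APC anti-His at 20 nM final), and time-resolved FRET is measured.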

[1] = target: T2, LK35.2-hPD-L1 cells / PE-labeled PD-1-Ig (Homo sapiens, UniProt Q9NZQ7); test: LK35.2-hPD-L1 cell binding high-content screening assay; assay type: cell-based; conditions: cell binding assay, cell line not given
T2 construct: expressed in transfected cells; host or cells: LK35.2 mouse B cell line
T2 sequence (Q9NZQ7 19-290): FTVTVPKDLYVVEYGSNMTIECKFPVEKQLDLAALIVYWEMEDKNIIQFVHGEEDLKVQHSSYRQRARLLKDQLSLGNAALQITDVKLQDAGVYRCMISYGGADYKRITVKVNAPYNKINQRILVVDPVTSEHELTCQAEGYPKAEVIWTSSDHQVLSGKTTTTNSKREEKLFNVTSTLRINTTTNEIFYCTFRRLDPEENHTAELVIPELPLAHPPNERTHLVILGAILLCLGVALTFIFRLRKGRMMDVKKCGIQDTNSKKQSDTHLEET
Procedure, shortened: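 Readout: high-content imaging of PE-PD-1-Ig bound to LK35.2-hPD-L1 cells. Cells plated overnight (RPMI/10% FCS); compound + 1 nM PE-PD-1-Ig, 1 h, 37 °C; 3× dPBS wash before imaging.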

[2] = cluster symbol, read-out: HTRF IC50 cluster
[3] = cluster symbol, read-out: CBA IC50 cluster
[4] = numeric value, read-out: HTRF IC50 values
[5] = numeric value, read-out: CBA IC50 values

Row | SMILES | IC50 (Human PD-L1/PD-1; [2]) [nM] | IC50 [1, 3] [nM] | IC50 (Human PD-L1/PD-1; [4]) [nM] | IC50 [1, 5] [nM]
1 | CCCC[C@H]1C(=O)N(C)[C@@H](CCCC)C(=O)N[C@@H](CCCNC(=N)N)C(=O)NC(C(=O)NCC(N)=O)CSCC(=O)N[C@@H](Cc2ccc(O)cc2)C(=O)N(C)[C@@H](C)C(=O)N[C@@H](CC(N)=O)C(=O)N2C[C@H](O)C[C@H]2C(=O)N[C@@H](Cc2cnc[nH]2)C(=O)N[C@@H](CC(C)C)C(=O)N2CCC[C@H]2C(=O)N[C@@H](Cc2c[nH]c3ccccc23)C(=O)N[C@@H](CO)C(=O)N[C@@H](Cc2c[nH]c3ccccc23)C(=O)N1C (stereo partly shown) [Example 9011] ({CH2CO}-Y[NMeA]N[Hyp]HLPWSW[NMeNle][NMeNle]R[ξC]G-NH2; thioether N-14) | – | – | 9.4 | 13.5
2 | CCCC[C@H]1C(=O)N(C)[C@@H](CCCC)C(=O)N[C@@H](CCCNC(=N)N)C(=O)NC(C(=O)NCC(N)=O)CSCC(=O)N[C@@H](Cc2ccc(O)cc2)C(=O)N(C)[C@@H](C)C(=O)N[C@@H](CC(N)=O)C(=O)N2C[C@H](O)C[C@H]2C(=O)N[C@@H](Cc2cnc[nH]2)C(=O)N[C@@H](CC(C)C)C(=O)N2C[C@H](O)C[C@H]2C(=O)N[C@@H](Cc2c[nH]c3ccccc23)C(=O)N[C@@H](CO)C(=O)N[C@@H](Cc2c[nH]c3ccccc23)C(=O)N1C (stereo partly shown) [Example 9013] ({CH2CO}-Y[NMeA]N[Hyp]HL[Hyp]WSW[NMeNle][NMeNle]R[ξC]G-NH2; thioether N-14) | – | – | 8.11 | 5.97
3 | CCCC[C@H]1C(=O)N(C)[C@@H](CCCC)C(=O)N[C@@H](CCCNC(=N)N)C(=O)NC(C(=O)NCC(N)=O)CSCC(=O)N[C@@H](Cc2ccc(O)cc2)C(=O)N(C)[C@@H](C)C(=O)N[C@@H](CC(N)=O)C(=O)N2[C@@H](C)CC[C@H]2C(=O)N[C@@H](Cc2cnc[nH]2)C(=O)N[C@@H](CC(C)C)C(=O)N2CCC[C@H]2C(=O)N[C@@H](Cc2c[nH]c3ccccc23)C(=O)N[C@@H](CO)C(=O)N[C@@H](Cc2csc3ccccc23)C(=O)N1C (stereo partly drawn) [Example 9016] ({CH2CO}-Y[NMeA]N[Pro(5S-Me)]HLPWS[Bta][NMeNle][NMeNle]R[ξC]G-NH2; thioether N-14) | – | – | 5.94 | 3.28
4 | CCCC[C@H]1C(=O)N(C)[C@@H](CCCC)C(=O)N[C@@H](CCCNC(=N)N)C(=O)NC(C(=O)NCC(N)=O)CCSCC(=O)N[C@@H](Cc2ccc(O)cc2)C(=O)N(C)[C@@H](C)C(=O)N[C@@H](CC(N)=O)C(=O)N2CCC[C@H]2C(=O)N[C@@H](Cc2cnc[nH]2)C(=O)N[C@@H](CC(C)C)C(=O)N2CCC[C@H]2C(=O)N[C@@H](Cc2c[nH]c3ccccc23)C(=O)N[C@@H](CO)C(=O)N[C@@H](Cc2csc3ccccc23)C(=O)N1C (stereo partly shown) [Example 9018] ({CH2CO}-Y[NMeA]NPHLPWS[Bta][NMeNle][NMeNle]R[ξhCys]G-NH2; thioether N-14) | 6.76 to 30.3 | > 74.3 | – | –
5 | CCCC[C@H]1C(=O)N(C)[C@@H](CCCC)C(=O)N[C@@H](CCCNC(=N)N)C(=O)NC(C(=O)NCC(N)=O)CCSCC(=O)N[C@@H](Cc2ccc(O)cc2)C(=O)N(C)[C@@H](C)C(=O)N[C@@H](CC(N)=O)C(=O)N2CCC[C@H]2C(=O)N[C@@H](Cc2cnc[nH]2)C(=O)N[C@@H](CC(C)C)C(=O)N2CCC[C@H]2C(=O)N[C@@H](Cc2c[nH]c3ccccc23)C(=O)N[C@@H](CO)C(=O)N[C@@H](Cc2c[nH]c3ccccc23)C(=O)N1C (stereo partly shown) [Example 9019] ({CH2CO}-Y[NMeA]NPHLPWSW[NMeNle][NMeNle]R[ξhCys]G-NH2; thioether N-14) | 6.76 to 30.3 | > 74.3 | – | –

Next, values leading:

Row | IC50 (Human PD-L1/PD-1; [2]) [nM] | IC50 [1, 3] [nM] | IC50 (Human PD-L1/PD-1; [4]) [nM] | IC50 [1, 5] [nM] | SMILES
6 | 6.76 to 30.3 | 4.78 to 72.9 | – | – | CCCC[C@H]1C(=O)N[C@@H](CCCNC(=N)N)C(=O)NC(C(=O)NCC(N)=O)CSCC(=O)N[C@@H](Cc2ccc(O)cc2)C(=O)N(C)[C@@H](C)C(=O)N[C@@H](CC(=O)O)C(=O)N2CCC[C@H]2C(=O)N[C@@H](Cc2cnc[nH]2)C(=O)N[C@@H](CC(C)C)C(=O)N2CCC[C@H]2C(=O)N[C@@H](Cc2c[nH]c3ccccc23)C(=O)N[C@@H](CO)C(=O)N[C@@H](Cc2c[nH]c3ccccc23)C(=O)N(C)[C@@H](CCOC)C(=O)N1C (stereo partly shown) [Example 9010] ({CH2CO}-Y[NMeA]DPHLPWSW[NMehSer](Me)[NMeNle]R[ξC]G-NH2; thioether N-14)
7 | 6.76 to 30.3 | 0.158 to 4.71 | – | – | CCCC[C@H]1C(=O)N(C)[C@@H](CCCC)C(=O)N[C@@H](CCCNC(=N)N)C(=O)NC(C(=O)NCC(N)=O)CSCC(=O)N[C@@H](Cc2ccc(O)cc2)C(=O)N(C)[C@@H](C)C(=O)N[C@@H](CC(N)=O)C(=O)N2C[C@H](O)C[C@H]2C(=O)N[C@@H](Cc2cnc[nH]2)C(=O)N[C@@H](CC(C)C)C(=O)N2C[C@H](O)C[C@H]2C(=O)N[C@@H](Cc2c[nH]c3ccccc23)C(=O)N[C@@H](CO)C(=O)N[C@@H](Cc2csc3ccccc23)C(=O)N1C (stereo partly shown) [Example 9012] ({CH2CO}-Y[NMeA]N[Hyp]HL[Hyp]WS[Bta][NMeNle][NMeNle]R[ξC]G-NH2; thioether N-14)
8 | 0.385 to 6.74 | 0.158 to 4.71 | – | – | CCCC[C@H]1C(=O)N(C)[C@@H](CCCC)C(=O)N[C@@H](CCCNC(=N)N)C(=O)NC(C(=O)NCC(N)=O)CSCC(=O)N[C@@H](Cc2ccc(O)cc2)C(=O)N(C)[C@@H](C)C(=O)N[C@@H](CC(N)=O)C(=O)N2CCC[C@H]2C(=O)N[C@@H](Cc2cnc[nH]2)C(=O)N[C@@H](CC(C)C)C(=O)N2[C@@H](C)CC[C@H]2C(=O)N[C@@H](Cc2c[nH]c3ccccc23)C(=O)N[C@@H](CO)C(=O)N[C@@H](Cc2c[nH]c3ccccc23)C(=O)N1C (stereo partly shown) [Example 9014]
9 | 6.76 to 30.3 | 0.158 to 4.71 | – | – | CCCC[C@H]1C(=O)N(C)[C@@H](CCCC)C(=O)N[C@@H](CCCNC(=N)N)C(=O)NC(C(=O)NCC(N)=O)CSCC(=O)N[C@@H](Cc2ccc(O)cc2)C(=O)N(C)[C@@H](C)C(=O)N[C@@H](CC(N)=O)C(=O)N2CCC[C@H]2C(=O)N[C@@H](Cc2cnc[nH]2)C(=O)N[C@@H](CC(C)C)C(=O)N2[C@@H](C)CC[C@H]2C(=O)N[C@@H](Cc2c[nH]c3ccccc23)C(=O)N[C@@H](CO)C(=O)N[C@@H](Cc2csc3ccccc23)C(=O)N1C (stereo partly drawn) [Example 9015] ({CH2CO}-Y[NMeA]NPHL[Pro(5S-Me)]WS[Bta][NMeNle][NMeNle]R[ξC]G-NH2; thioether N-14)
10 | 6.76 to 30.3 | 4.78 to 72.9 | – | – | CCCC[C@H]1C(=O)N(C)[C@@H](CCCC)C(=O)N[C@@H](CCCNC(=N)N)C(=O)NC(C(=O)NCC(N)=O)CSCC(=O)N[C@@H](Cc2ccc(O)cc2)C(=O)N(C)[C@@H](C)C(=O)N[C@@H](CC(N)=O)C(=O)N2[C@@H](C)CC[C@H]2C(=O)N[C@@H](Cc2cnc[nH]2)C(=O)N[C@@H](CC(C)C)C(=O)N2CCC[C@H]2C(=O)N[C@@H](Cc2c[nH]c3ccccc23)C(=O)N[C@@H](CO)C(=O)N[C@@H](Cc2c[nH]c3ccccc23)C(=O)N1C (stereo partly drawn) [Example 9017] ({CH2CO}-Y[NMeA]N[Pro(5S-Me)]HLPWSW[NMeNle][NMeNle]R[ξC]G-NH2; thioether N-14)
11 | 0.385 to 6.74 | 4.78 to 72.9 | – | – | CCCC[C@H]1C(=O)N(C)[C@@H](CCCC)C(=O)N[C@@H](CCCNC(=N)N)C(=O)NC(C(=O)NCC(N)=O)CCSCC(=O)N[C@@H](Cc2ccc(O)cc2)C(=O)N(C)[C@@H](C)C(=O)N[C@@H](CC(N)=O)C(=O)N2CCC[C@H]2C(=O)N[C@@H](Cc2cnc[nH]2)C(=O)N[C@@H](CC(C)C)C(=O)N2C[C@H](O)C[C@H]2C(=O)N[C@@H](Cc2c[nH]c3ccccc23)C(=O)N[C@@H](CO)C(=O)N[C@@H](Cc2csc3ccccc23)C(=O)N1C (stereo partly shown) [Example 9020] ({CH2CO}-Y[NMeA]NPHL[Hyp]WS[Bta][NMeNle][NMeNle]R[ξhCys]G-NH2; thioether N-14)
